The source of these data is patent publication US11992697B2, “X-ray psoralen activated cancer therapy (X-PACT)” (IMMUNOLIGHT, LLC, priority 2015, dated 2024).

Structures are written as SMILES.

For data set [1], the system named is syngeneic 4T1-HER2 tumors. The data set is described as follows: In-vivo X-PACT trial, tumor growth (FIG. 6). The conditions noted are these: 5 μM psoralen (AMT) or 100 μg phosphor with x-ray; compared with expectation from in-vitro data. Also on record: species or system BALB/c mice. As to the method:
An in-vivo trial was conducted for preliminary evaluation of X-PACT administered to syngeneic 4T1-HER2 tumors grown on BALB/c mice. There were 4 arms of the trial: (1) saline only (control), (2) phosphors alone with x-ray, (3) psoralen (AMT) alone with x-ray, and (4) full X-PACT treatment including both phosphor and psoralen and x-ray irradiation. X-PACT treatments were given in 3 fractions per week, to a total of 6 fractions. In arms 2-3 a consistent x-ray irradiation technique was used (about 1.2 Gy delivered at 75 kVp by 30 mA in 3 minutes) with 100 μg of phosphor, and 5 μM psoralen (AMT) (with μM representing micromolar). 0.5 Million tumor cells were injected per mouse. There were 6-8 mice per arm, and the study was repeated a second time, yielding effective sample sizes of 12-16.
In this evaluation, X-PACT treatment was applied to BALBC mice with syngeneic 4T1-HER2 tumors. In the separate psoralen and phosphor control arms (blue and red respectively), 5 μM psoralen (AMT) and 100 μg of phosphor where applied. A consistent x-ray irradiation technique was used for all arms (except saline control) which was 2 Gy delivered at 75 kVp by 30 mA in 3 minutes.

The test system of the next data set is KP158B (sarcoma). The data set is described as follows: UV light activated psoralen, Cell-Titer-Glo Luminescence Cell Viability Assay (FIG. 3A). The following applies: psoralen 40 μM; UV light 0, 0.25, 0.5, 1.0 J/cm^2. Format: cell-based, murine. As to the method:
(§1) Metabolic cell viability was also assessed visually using Methylene blue staining and ATP-induced Luminescence imaging (Cell-Titer-Glo® Luminescence Cell Viability Assay). The luminescence imaging permitted investigation of the cytotoxicity of psoralen activated directly with a UV lamp, and in the absence of phosphors and x-ray radiation.
(§2) N=4 for each cell line at each UV light condition (0, 0.25, 0.5, 1.0 J/cm^2). The psoralen concentration was 40 μM.

Another data set has as its system 4T1. The data set is described as above. In kind it is cell-based, murine. The conditions noted are these: psoralen 40 μM; UV light 0, 0.25, 0.5, 1.0 J/cm^2. As to the method: as §1, §2
Data set [2] relates to CT2A (murine malignant glioma). Described as above. Format: cell-based. The following applies: psoralen 40 μM; UV light 0, 0.25, 0.5, 1.0 J/cm^2. As to the method: as §1, §2
The subject of a further data set is 4T1-HER2 cells. The data set is described as follows: In-vitro X-PACT Annexin V (+) signal by Guava flow cytometry (FIGS. 2B, 4, 5). Format: cell-based, murine. The following applies: component alone; 36 independent irradiation experiments, 1 Gy at 80 kVp. As to the method: Guava Annexin V flow cell cytometry was used to quantify cytotoxicity in 3 murine tumor cell lines (breast-4T1, glioma-CT2A, and sarcoma KP15B8). In-vitro X-PACT studies were conducted on cells prepared in the following manner. Cells were incubated in appropriate growing media and buffers before being trypsinized and plated evenly onto twelve (12) well plates for 24 hours. About 20 minutes prior to X-PACT irradiation, the wells of each plate were exposed to the following combinations of additives: (1) control—cells only with no additives, (2) UVADEX only, (3) phosphors only, (4) UVADEX+phosphors. Each plate had twelve (12) wells with three wells for each of the four treatment arms. […]
Two primary flow cytometry metrics were used to evaluate the X-PACT treatments, both determined at 48h after X-PACT treatment. […] The first metric is metabolically viable cell count (or cell viability) determined from the number of whole cells per well as determined using forward scattering (FSC). […] (All wells on a given plate receive the same dose.) The second metric is Annexin V (+) signal, which is the fraction of the metabolically viable cells which expressed a positive Annexin V signal as determined by flow cell cytometry, and include any cells advancing toward early or late apoptotic cell death. […]
Background: Flow cytometry measures light scatter and fluorescence of single cells or particles in a stream.

As for `O=c1ccc2cc3ccoc3cc2o1` [psoralen], in data set [1], the “component effect on tumor growth (single-component arm with x-ray)” value was “slightly higher component effect”. Also, the “effect of UV light activated psoralen on viable cells” value (in the data set with KP158B (sarcoma); in the data set on 4T1; in data set [2]) was “reduce viable cells” in each case. Moreover, the “effect on cytotoxicity (Annexin V signal), multi-variable regression” value in the data set with 4T1-HER2 cells is recorded as “neither psoralen nor phosphor alone had a strong effect”.
